Counter-ions that a name gives are not always drawn. Where only a bound is given, the exact number is not on record here.

Test [1] deals with Male SD rats. The experiment in a line: Atrial effective refractory period (AERP) prolonging effect, atrium electrostimulation model. The format is in vivo, rat. Conditions: anesthetized male SD rats, drug 10 mg/kg/10 min, basic cycle 120 ms, three examples per group.
The nature of test [2]: biochemical. Further details: species or system Influenza A Virus H1N1.
Test [3] has as its system atrial fibrillation model. The note with it: described in Patent Document 1 (JP 2012-236814 A); cited from earlier work.

As for `CCC(CC)O[C@@H]1C=C(C(=O)c2ccc(C)o2)C[C@H](N)[C@H]1NC(C)=O` [Example 3, N-[(1R,2R,6S)-6-amino-2-(1-ethylpropoxy)-4-(5-methylfuran-2-carbonyl)-3-cyclohexen-1-yl]acetamide], the ΔAERP prolongation in test [1] was found to be 14.5 ms.

On to `CCC(CC)O[C@@H]1C=C(C(=O)c2cccs2)C[C@H](NC(C)=O)[C@H]1N` [Example 21, N-[(1S,5R,6R)-6-amino-5-(1-ethylpropoxy)-3-(thiophene-2-carbonyl)-3-cyclohexen-1-yl]acetamide], for which, in test [2], the half-inhibitory concentration (IC50) was > 300 µM. This compound also displayed a ΔAERP prolongation in test [1] of 29.5 ms.

As for `CCC(CC)O[C@@H]1C=C(C(=O)Cc2ccccc2)C[C@H](N)[C@H]1NC(C)=O` [Example 7, N-[(1R,2R,6S)-6-amino-2-(1-ethylpropoxy)-4-phenylacetyl-3-cyclohexen-1-yl]acetamide], in test [1], the ΔAERP prolongation is on record as 22.0 ms.

With `CCC(CC)O[C@@H]1C=C(C(O)c2ccccc2)C[C@H](N)[C@H]1NC(C)=O` (stereo partly drawn) [Example 19, N-[(1R,2R,6S)-6-amino-2-(1-ethylpropoxy)-4-(hydroxyphenylmethyl)-3-cyclohexen-1-yl]acetamide], in test [2], the midpoint of inhibition, the IC50, lay at 87.3 µM.

For the compound `CCC(CC)O[C@@H]1C=C(C(=O)c2ccc(C)s2)C[C@H](N)[C@H]1NC(C)=O` [Example 4, N-[(1R,2R,6S)-6-amino-2-(1-ethylpropoxy)-4-(5-methylthiophene-2-carbonyl)-3-cyclohexen-1-yl]acetamide], in test [2], the IC50 is 66.3 µM.

For the compound `CCC(CC)O[C@@H]1C=C(C(=O)c2ccccc2)C[C@H](NC(C)=O)[C@H]1N` [Example 18, N-[(1S,5R,6R)-6-amino-3-benzoyl-5-(1-ethylpropoxy)-3-cyclohexen-1-yl]acetamide], the IC50 in test [2] is > 300 µM. The ΔAERP prolongation in test [1] came to 24.0 ms.

In test [2], `CCC(CC)O[C@@H]1C=C(C(=O)c2ccc(OC)s2)C[C@H](N)[C@H]1NC(C)=O` [Example 30, N-[(1R,2R,6S)-6-amino-2-(1-ethylpropoxy)-4-(5-methoxythiophene-2-carbonyl)-3-cyclohexen-1-yl]acetamide hydrochloride] displayed an IC50 of 10.6 µM.

In the case of `CCNC(=O)N[C@@H]1[C@@H](N)CC(C(=O)c2cccs2)=C[C@H]1OC(CC)CC` [Example 27, [(1R,2R,6S)-6-amino-2-(1-ethylpropoxy)-4-(thiophene-2-carbonyl)cyclohexen-3-yl]-3-ethylurea], in test [2], the IC50 was > 300 µM. In test [1], this compound returned a ΔAERP prolongation of 56.0 ms.

`CCC(CC)O[C@@H]1C=C(C(=O)c2ccccc2)C[C@H](N)[C@H]1NC(C)=O.Cl` [Example 6, N-[(1R,2R,6S)-6-amino-4-benzoyl-2-(1-ethylpropoxy)-3-cyclohexen-1-yl]acetamide hydrochloride]: the half-inhibitory concentration (IC50) in test [2] worked out at 86 µM. The same compound showed a ΔAERP prolongation in test [1] of 35.7 ms.

Consider `CCOCC1=C[C@@H](OC(CC)CC)[C@H](NC(C)=O)[C@@H](N)C1` [Example 23, N-[(1R,2R,6S)-6-amino-4-ethoxymethyl-2-(1-ethylpropoxy)-3-cyclohexen-1-yl]acetamide], for which the 50% inhibitory concentration (IC50) in test [2] turned out to be 80.1 µM. In addition, the ΔAERP prolongation in test [1] is 30.0 ms.

Turning to `CCC(CC)O[C@@H]1C=C(C(=O)c2ccccc2)C[C@H](N)[C@H]1NC(=O)C(C)(C)C` [Example 17, N-[(1R,2R,6S)-6-amino-4-benzoyl-2-(1-ethylpropoxy)-3-cyclohexen-1-yl]-2,2-dimethylpropionamide], in test [2], the IC50 was > 300 µM. In test [1], the ΔAERP prolongation is 39.3 ms.

In test [1], `CCC(CC)O[C@@H]1C=C(C(=O)C(C)(C)C)C[C@H](N)[C@H]1NC(C)=O` [Example 10, N-[(1R,2R,6S)-6-amino-4-(2,2-dimethylpropionyl)-2-(1-ethylpropoxy)-3-cyclohexen-1-yl]acetamide] had a ΔAERP prolongation of 16.0 ms.

With `CCC(CC)O[C@@H]1C=C(C(=O)c2ccc(F)cc2)C[C@H](N)[C@H]1NC(C)=O` [Example 5, N-[(1R,2R,6S)-6-amino-2-(1-ethylpropoxy)-4-(4-fluorobenzoyl)-3-cyclohexen-1-yl]acetamide], the ΔAERP prolongation in test [1] was 22.0 ms.

`CCCCC(=O)C1=C[C@@H](OC(CC)CC)[C@H](NC(C)=O)[C@@H](N)C1.Cl` [Example 12, N-[(1R,2R,6S)-6-amino-2-(1-ethylpropoxy)-4-pentanoyl-3-cyclohexen-1-yl]acetamide hydrochloride] displayed a half-maximal inhibitory concentration (IC50) in test [2] of 47.3 µM. The ΔAERP prolongation in test [1] was 23.0 ms.

Compound `CCC(CC)O[C@@H]1C=C(C(=O)c2cccs2)C[C@H](N)[C@H]1NC(C)=O` [Example 1, N-[(1R,2R,6S)-6-amino-2-(1-ethylpropoxy)-4-(thiophene-2-carbonyl)-3-cyclohexen-1-yl]acetamide] came in with a 50% inhibitory concentration (IC50) in test [2] of 71.7 µM. The ΔAERP prolongation in test [1] came to 40.0 ms.

With `CCC(CC)O[C@@H]1CC(C(O)c2ccccc2)C[C@H](N)[C@H]1NC(C)=O` (stereo partly drawn) [Example 24, N-[(1R,2S,6R)-2-amino-6-(1-ethylpropoxy)-4-(hydroxyphenylmethyl)cyclohexyl]acetamide], the IC50 in test [2] is > 300 µM. The ΔAERP prolongation in test [1] is recorded as 20.5 ms.

On to `CCN[C@@H]1[C@@H](N)CC(C(=O)c2cccs2)=C[C@H]1OC(CC)CC` [Example 26, [(3R,4R,5S)-5-amino-4-ethylamino-3-(1-ethylpropoxy)cyclohexen-1-yl]thiophene-2-yl-methanone], for which the IC50 in test [2] was > 300 µM.

Take `CCCCCCC(=O)C1=C[C@@H](OC(CC)CC)[C@H](NC(C)=O)[C@@H](N)C1` [Example 28, N-[(1R,2R,6S)-6-amino-2-(1-ethylpropoxy)-4-heptanoyl-3-cyclohexen-1-yl]acetamide]: the IC50 in test [2] was 24.6 µM. That is a double-digit micromolar value.

Take `CCC(CC)O[C@@H]1C=C(C(=O)c2cccs2)C[C@H](N)[C@H]1NC(=O)CC(C)C` [Example 25, N-[(1R,2R,6S)-6-amino-2-(1-ethylpropoxy)-4-(thiophene-2-carbonyl)-3-cyclohexen-1-yl]-3-methylbutyramide]: in test [1], the ΔAERP prolongation stood at 37.7 ms.

Turning to `CCC(CC)O[C@@H]1C=C(C(=O)c2ccccc2)C[C@H](N)[C@H]1NC(=O)c1ccccc1` [Example 16, N-[(1R,2R,6S)-6-amino-4-benzoyl-2-(1-ethylpropoxy)-3-cyclohexen-1-yl]benzamide], the ΔAERP prolongation in test [1] was 18.7 ms.

The compound `CCOC(=O)C1=C[C@@H](OC(CC)CC)[C@H](NC(C)=O)[C@@H](N)C1` [Oseltamivir, reference compound] showed a ΔAERP prolongation in test [1] of 15.7 ms. In test [3], the “atrial fibrillation suppression effect” value is listed as “has an atrial fibrillation suppression effect”.
